Values of other authors as cited in patent US20030207327A1, “Coisogenic eukaryotic cell collections” (priority 2001, published 2003).
Changes are numbered by the printed parent chain. Where two headings read alike, the source gives them in different places. Values belong to the compound of their own block, whether it stands above or below them.

Assays:
[1] = molecular target: ABCB1 (MDR1, P-glycoprotein) (Homo sapiens, UniProt P08183, G185V)
CYP2D6 = details: protein variant Gly169Ter; poor drug metabolizer; OMIM 124030
[2] = system: beta tubulin (Isoform M40)
[3] = molecular target: T1, TPMT (thiopurine S-methyltransferase) (Homo sapiens, UniProt P51580, R215H); details: TPMT variant G644A, Arg215His; OMIM 187680
T1 sequence (P51580 1-245 R215H): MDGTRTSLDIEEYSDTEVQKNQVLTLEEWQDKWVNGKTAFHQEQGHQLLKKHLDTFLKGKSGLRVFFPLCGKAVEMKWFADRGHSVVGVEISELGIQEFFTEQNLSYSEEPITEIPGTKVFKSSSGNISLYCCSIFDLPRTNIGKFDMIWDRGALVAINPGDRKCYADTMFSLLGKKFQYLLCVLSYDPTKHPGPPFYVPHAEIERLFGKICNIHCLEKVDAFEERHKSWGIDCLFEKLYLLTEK

[4] = molecular target: T2, TPMT (thiopurine S-methyltransferase) (Homo sapiens, UniProt P51580, A154T); details: TPMT variant G460A, Ala154Thr; OMIM 187680
T2 sequence (P51580 1-245 A154T): T1 sequence (P51580 1-245 R215H) with A154T, H215R

[5] = molecular target: T3, TPMT (thiopurine S-methyltransferase) (Homo sapiens, UniProt P51580, A80P); details: TPMT variant G238C, Ala80Pro; OMIM 187680
T3 sequence (P51580 1-245 A80P): T1 sequence (P51580 1-245 R215H) with A80P, H215R

[6] = molecular target: T4, TPMT (thiopurine S-methyltransferase) (Homo sapiens, UniProt P51580, Y240C); details: TPMT variant A719G, Tyr240Cys; OMIM 187680
T4 sequence (P51580 1-245 Y240C): T1 sequence (P51580 1-245 R215H) with H215R, Y240C

ABCB1 (MDR1, P-glycoprotein), sequence (P08183 whole entry G185V): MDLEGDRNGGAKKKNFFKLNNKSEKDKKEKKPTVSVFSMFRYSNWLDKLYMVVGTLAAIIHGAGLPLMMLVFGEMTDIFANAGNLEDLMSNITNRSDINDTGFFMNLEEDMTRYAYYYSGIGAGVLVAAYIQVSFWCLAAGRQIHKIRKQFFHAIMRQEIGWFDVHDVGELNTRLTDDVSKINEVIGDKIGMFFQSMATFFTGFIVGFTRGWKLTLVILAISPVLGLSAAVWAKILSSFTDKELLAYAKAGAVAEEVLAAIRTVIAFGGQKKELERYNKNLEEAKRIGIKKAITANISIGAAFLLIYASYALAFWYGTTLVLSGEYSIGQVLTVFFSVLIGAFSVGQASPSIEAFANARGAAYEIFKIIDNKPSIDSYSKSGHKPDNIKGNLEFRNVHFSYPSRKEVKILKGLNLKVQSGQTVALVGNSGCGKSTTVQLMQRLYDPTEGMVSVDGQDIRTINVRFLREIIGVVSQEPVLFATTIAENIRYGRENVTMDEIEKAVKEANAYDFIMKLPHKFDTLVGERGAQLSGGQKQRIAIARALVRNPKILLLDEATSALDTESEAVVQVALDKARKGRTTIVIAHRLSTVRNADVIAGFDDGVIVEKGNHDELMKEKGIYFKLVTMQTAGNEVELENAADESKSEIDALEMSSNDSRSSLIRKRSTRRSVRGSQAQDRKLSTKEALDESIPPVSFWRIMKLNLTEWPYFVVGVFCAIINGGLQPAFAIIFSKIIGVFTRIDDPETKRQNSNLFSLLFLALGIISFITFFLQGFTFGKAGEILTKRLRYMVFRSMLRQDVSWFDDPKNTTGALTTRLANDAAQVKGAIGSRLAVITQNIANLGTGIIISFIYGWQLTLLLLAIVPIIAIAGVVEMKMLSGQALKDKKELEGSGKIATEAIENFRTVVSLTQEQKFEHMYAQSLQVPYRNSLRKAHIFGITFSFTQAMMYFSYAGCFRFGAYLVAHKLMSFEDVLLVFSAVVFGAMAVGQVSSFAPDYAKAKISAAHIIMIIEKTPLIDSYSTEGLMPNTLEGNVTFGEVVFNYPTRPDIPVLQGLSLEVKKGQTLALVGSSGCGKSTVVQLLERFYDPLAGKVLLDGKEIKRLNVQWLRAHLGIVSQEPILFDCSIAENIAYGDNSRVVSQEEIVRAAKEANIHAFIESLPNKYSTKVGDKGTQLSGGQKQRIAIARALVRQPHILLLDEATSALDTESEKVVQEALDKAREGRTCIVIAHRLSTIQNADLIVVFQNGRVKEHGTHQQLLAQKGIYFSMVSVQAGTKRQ

Compound: COc1cc2c(c(OC)c1OC)-c1ccc(OC)c(=O)cc1[C@@H](NC(C)=O)CC2 [colchicine]
Phenotype: colchicine resistance [1]: increased

Phenotype (CYP2D6): Debrisoquine, poor
Compound: N=C(N)N1CCc2ccccc2C1 [Debrisoquine]

Compound: CC(=O)O[C@H]1C(=O)[C@@]2(C)[C@H]([C@H](OC(=O)c3ccccc3)[C@]3(O)C[C@H](OC(=O)[C@H](O)[C@@H](NC(=O)c4ccccc4)c4ccccc4)C(C)=C1C3(C)C)[C@]1(OC(C)=O)CO[C@@H]1C[C@@H]2O [paclitaxel]
Phenotype (response to paclitaxel) ([2]; beta tubulin variant Ala364Thr (G1092A)): resistance
Phenotype (response to paclitaxel) ([2]; beta tubulin variant Phe270Val (T810G)): resistance

Phenotype [3]: sensitivity
Phenotype [4]: sensitivity
Phenotype [5]: sensitivity
Phenotype [6]: sensitivity
Compound: Sc1ncnc2nc[nH]c12 [6-mercaptopurine]
